Experimental data taken from patent US9725465B2, “Biaryl acetamide compounds and methods of use thereof” (Ambit Biosciences Corporation, priority 2013, dated 2017).

Legend:
[1] = molecular target: FLT3 kinase (Homo sapiens (Human), UniProt P36888); assay: Competition binding assay (Kd), FLT3; conditions: competition binding assay
[2] = molecular target: KIT kinase (Homo sapiens (Human), UniProt P10721); assay: Competition binding assay (Kd), KIT; conditions: competition binding assay
How it was run: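 Kd derived from eleven-point threefold serial dilutions of compound competing with bead-bound ligand for kinase; bound kinase eluted and measured by quantitative PCR. Kinase supplied either as a T7 phage fusion or expressed in HEK-293 cells with a DNA tag; DMSO served as control.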

[3] = molecular target: FLT3-ITD (Homo sapiens (Human), UniProt P36888, INS600HVDFREYEYD); assay: pFLT3 MSD assay, Ba/F3 FLT3-ITD; type: cell-based; conditions: Ba/F3 FLT3-ITD cells, 2 hours, read-out: BaF3-FLT3-ITD pFlt3 IC50
Sequence of FLT3-ITD (P36888 other isoform, or with tags, fused parts or gaps limits assumed, stated change not applied): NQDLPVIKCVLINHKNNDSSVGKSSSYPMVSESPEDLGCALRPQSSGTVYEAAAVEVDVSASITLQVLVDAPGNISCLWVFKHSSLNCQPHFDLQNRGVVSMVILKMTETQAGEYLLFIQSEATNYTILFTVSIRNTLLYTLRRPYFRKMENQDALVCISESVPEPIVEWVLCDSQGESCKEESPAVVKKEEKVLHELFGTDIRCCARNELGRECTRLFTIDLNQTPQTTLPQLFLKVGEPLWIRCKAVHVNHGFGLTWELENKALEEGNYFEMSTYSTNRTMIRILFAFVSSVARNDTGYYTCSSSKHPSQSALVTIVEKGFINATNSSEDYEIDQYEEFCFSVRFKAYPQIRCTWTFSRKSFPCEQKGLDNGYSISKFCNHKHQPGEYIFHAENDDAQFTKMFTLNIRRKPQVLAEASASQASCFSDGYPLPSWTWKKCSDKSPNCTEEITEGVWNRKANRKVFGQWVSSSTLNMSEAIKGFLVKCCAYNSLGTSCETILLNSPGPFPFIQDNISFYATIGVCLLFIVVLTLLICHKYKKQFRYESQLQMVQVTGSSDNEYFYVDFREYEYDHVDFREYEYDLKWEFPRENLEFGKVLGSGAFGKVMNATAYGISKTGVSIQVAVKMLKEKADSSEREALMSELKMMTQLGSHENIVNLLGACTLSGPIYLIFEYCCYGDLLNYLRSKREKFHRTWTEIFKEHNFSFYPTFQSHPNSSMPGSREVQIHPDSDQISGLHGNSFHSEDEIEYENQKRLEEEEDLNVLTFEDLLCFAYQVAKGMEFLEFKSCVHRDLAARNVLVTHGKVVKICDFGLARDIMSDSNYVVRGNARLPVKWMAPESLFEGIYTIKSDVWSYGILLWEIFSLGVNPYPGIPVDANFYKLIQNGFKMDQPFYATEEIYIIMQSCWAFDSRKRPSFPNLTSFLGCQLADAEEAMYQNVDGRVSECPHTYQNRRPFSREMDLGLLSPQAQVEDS

Sequence of FLT3 kinase (P36888 27-993): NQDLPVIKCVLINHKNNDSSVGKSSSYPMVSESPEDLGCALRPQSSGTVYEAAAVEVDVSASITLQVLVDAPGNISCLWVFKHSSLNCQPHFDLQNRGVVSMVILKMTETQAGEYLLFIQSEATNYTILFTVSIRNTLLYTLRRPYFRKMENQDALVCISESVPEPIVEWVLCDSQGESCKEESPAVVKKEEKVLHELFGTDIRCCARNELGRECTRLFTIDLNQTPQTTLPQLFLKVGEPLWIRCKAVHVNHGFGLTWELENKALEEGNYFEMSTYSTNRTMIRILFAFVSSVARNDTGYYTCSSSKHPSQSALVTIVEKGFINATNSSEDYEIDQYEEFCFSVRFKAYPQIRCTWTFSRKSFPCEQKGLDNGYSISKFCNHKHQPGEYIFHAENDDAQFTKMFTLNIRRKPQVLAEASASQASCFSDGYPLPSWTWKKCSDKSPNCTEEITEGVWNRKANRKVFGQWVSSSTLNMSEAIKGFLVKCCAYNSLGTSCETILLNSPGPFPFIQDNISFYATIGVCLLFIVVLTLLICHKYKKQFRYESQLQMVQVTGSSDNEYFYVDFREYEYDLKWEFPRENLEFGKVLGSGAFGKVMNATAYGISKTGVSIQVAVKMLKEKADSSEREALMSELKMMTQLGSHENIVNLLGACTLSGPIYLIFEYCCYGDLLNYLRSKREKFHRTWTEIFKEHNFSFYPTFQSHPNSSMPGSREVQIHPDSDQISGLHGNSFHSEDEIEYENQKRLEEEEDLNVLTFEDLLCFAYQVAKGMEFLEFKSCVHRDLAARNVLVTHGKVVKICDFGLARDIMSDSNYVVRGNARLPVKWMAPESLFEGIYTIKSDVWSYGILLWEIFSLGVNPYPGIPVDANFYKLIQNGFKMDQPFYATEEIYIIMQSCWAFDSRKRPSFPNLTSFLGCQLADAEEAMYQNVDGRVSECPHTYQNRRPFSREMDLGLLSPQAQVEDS
Sequence of KIT kinase (P10721 26-976): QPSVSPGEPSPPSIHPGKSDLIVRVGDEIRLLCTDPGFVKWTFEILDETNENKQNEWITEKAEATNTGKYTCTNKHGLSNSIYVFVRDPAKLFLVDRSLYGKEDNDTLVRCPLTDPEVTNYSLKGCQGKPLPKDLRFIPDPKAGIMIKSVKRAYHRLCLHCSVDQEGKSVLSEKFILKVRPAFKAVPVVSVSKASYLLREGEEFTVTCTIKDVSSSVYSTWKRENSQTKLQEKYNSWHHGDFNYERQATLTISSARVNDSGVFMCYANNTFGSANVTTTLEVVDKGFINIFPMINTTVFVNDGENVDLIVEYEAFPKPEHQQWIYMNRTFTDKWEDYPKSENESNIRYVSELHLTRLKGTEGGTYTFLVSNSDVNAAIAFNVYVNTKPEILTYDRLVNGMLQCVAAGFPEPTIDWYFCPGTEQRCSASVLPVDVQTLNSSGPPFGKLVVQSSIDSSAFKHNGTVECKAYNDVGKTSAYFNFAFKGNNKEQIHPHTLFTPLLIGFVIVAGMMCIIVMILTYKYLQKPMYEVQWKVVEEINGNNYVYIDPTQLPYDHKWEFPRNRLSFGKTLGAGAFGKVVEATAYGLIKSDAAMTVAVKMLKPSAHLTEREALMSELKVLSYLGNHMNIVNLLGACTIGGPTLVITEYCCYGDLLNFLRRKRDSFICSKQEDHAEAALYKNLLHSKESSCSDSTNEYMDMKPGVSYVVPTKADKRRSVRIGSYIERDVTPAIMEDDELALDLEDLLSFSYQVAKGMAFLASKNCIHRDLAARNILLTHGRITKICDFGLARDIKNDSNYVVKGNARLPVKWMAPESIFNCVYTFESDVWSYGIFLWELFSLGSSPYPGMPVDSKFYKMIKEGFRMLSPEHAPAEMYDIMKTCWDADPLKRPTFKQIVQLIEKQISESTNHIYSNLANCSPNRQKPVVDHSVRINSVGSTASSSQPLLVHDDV

| Kd [1] [nM] | Kd [2] [nM] | IC50 [3] [nM] | SMILES |
| --- | --- | --- | --- |
| < 5 | < 5 | < 10 | CC(C)(C)c1cc(NC(=O)Cc2ccc(-c3cnc4[nH]c(C(=O)NCCO)cc4c3)cc2)no1 [Example 64, 5-(4-(2-((5-(tert-butyl)isoxazol-3-yl)amino)-2-oxoethyl)phenyl)-N-(2-hydroxyethyl)-1H-pyrrolo[2,3-b]pyridine-2-carboxamide] |
| < 5 | < 5 | < 10 | CN(C)CCNC(=O)c1cc2cc(-c3ccc(CC(=O)Nc4cc(C(C)(C)C)on4)cc3)cnc2[nH]1 [Example 66, 5-(4-(2-((5-(tert-butyl)isoxazol-3-yl)amino)-2-oxoethyl)phenyl)-N-(2-(dimethylamino)ethyl)-1H-pyrrolo[2,3-b]pyridine-2-carboxamide] |
| < 5 | < 5 | < 10 | CN(C)CCCN(C)C(=O)c1cc2cc(-c3ccc(CC(=O)Nc4cc(C(C)(C)C)on4)cc3)cnc2[nH]1 [Example 67, 5-(4-(2-((5-(tert-butyl)isoxazol-3-yl)amino)-2-oxoethyl)phenyl)-N-(3-(dimethylamino)propyl)-N-methyl-1H-pyrrolo[2,3-b]pyridine-2-carboxamide] |
| < 5 | < 5 | < 10 | O=C(Cc1ccc(-c2cnc3[nH]c(CO)cc3c2)cc1F)Nc1cc(C2(C(F)(F)F)CC2)on1 [Example 70, 2-(2-fluoro-4-(2-(hydroxymethyl)-1H-pyrrolo[2,3-b]pyridin-5-yl)phenyl)-N-(5-(1-(trifluoromethyl)cyclopropyl)isoxazol-3-yl)acetamide] |

Further lines, the molecule ahead of its results:

| SMILES | Kd [1] [nM] | Kd [2] [nM] | IC50 [3] [nM] |
| --- | --- | --- | --- |
| COc1n[nH]c2ncc(-c3ccc(CC(=O)Nc4cc(C(C)(C)C(F)(F)F)on4)c(F)c3)cc12 [Example 63, 2-(2-fluoro-4-(3-methoxy-1H-pyrazolo[3,4-b]pyridin-5-yl)phenyl)-N-(5-(1,1,1-trifluoro-2-methylpropan-2-yl)isoxazol-3-yl)acetamide] | < 5 | < 5 | < 10 |
| CNC(=O)c1cc2cc(-c3ccc(CC(=O)Nc4cc(C(C)(C)C)on4)cc3)cnc2[nH]1 [Example 65, 5-(4-(2-((5-(tert-butyl)isoxazol-3-yl)amino)-2-oxoethyl)phenyl)-N-methyl-1H-pyrrolo[2,3-b]pyridine-2-carboxamide] | < 5 | < 5 | < 10 |
| CC(C)(C)c1cc(NC(=O)Cc2ccc(-c3cnc4[nH]c(C(=O)NCCS(C)(=O)=O)cc4c3)cc2)no1 [Example 68, 5-(4-(2-((5-(tert-butyl)isoxazol-3-yl)amino)-2-oxoethyl)phenyl)-N-(2-(methylsulfonyl)ethyl)-1H-pyrrolo[2,3-b]pyridine-2-carboxamide] | < 5 | < 5 | < 10 |
| CN1CCC(NC(=O)c2cc3cc(-c4ccc(CC(=O)Nc5cc(C(C)(C)C)on5)cc4)cnc3[nH]2)CC1 [Example 69, 5-(4-(2-((5-(tert-butyl)isoxazol-3-yl)amino)-2-oxoethyl)phenyl)-N-(1-methylpiperidin-4-yl)-1H-pyrrolo[2,3-b]pyridine-2-carboxamide] | < 5 | < 5 | < 10 |
| CC(=O)OCCOc1cc2ncc(-c3ccc(CC(=O)Nc4cc(C5(C(F)(F)F)CC5)on4)c(F)c3)nc2cc1OCCOC(C)=O [Example 74, ((2-(3-fluoro-4-(2-oxo-2-((5-(1-(trifluoromethyl)cyclopropyl)isoxazol-3-yl)amino)ethyl)phenyl)quinoxaline-6,7-diyl)bis(oxy))bis(ethane-2,1-diyl) diacetate] | < 5 | 5 to 20 | < 10 |
| O=C(Cc1ccc(-c2cnc3cc(OCCO)c(OCCO)cc3n2)cc1F)Nc1cc(C2(C(F)(F)F)CC2)on1 [Example 75, 2-(4-(6,7-bis(2-hydroxyethoxy)quinoxalin-2-yl)-2-fluorophenyl)-N-(5-(1-(trifluoromethyl)cyclopropyl)isoxazol-3-yl)acetamide] | < 5 | < 5 | < 10 |
